The subject of assay [1] is isolated rat soleus muscles. Kind of assay: Measurement of force in an in vitro model: recovery of contractile force of isolated rat soleus nerve-muscle preparation after tubocurarine. As to conditions: 40 min, read-out: Point increase (%): percentage increase of initial force that was restored; for activation at 50 µM: 50 μM of test compound. As for the experimental part:
The current disclosure relates to compounds that inhibit CIC-1 ion channels and increase muscle excitability and thereby improve muscle function in clinical conditions where muscle activation is failing. Such conditions result in loss of contractile function of skeletal muscle, weakness and excessive fatigue. In this series of experiments the compounds were tested for their ability to restore contractile function of isolated rat muscle when the neuromuscular transmission had been compromised akin to neuromuscular disorders.
Experimentally, soleus muscles from 4-5 wk old rats were isolated with the motor nerve remaining attached. The nerve-muscle preparations were mounted in experimental setups that enabled electrical stimulation of the motor nerve. Stimulation of the motor nerve led to activation of the muscle fibres and ensuing force production that was recorded. The nerve-muscle preparations were also in these experiments incubated in the standard Krebs Ringer (see example 15) and the solution was heated to 30° C. and continuously equilibrated with a mixture of 95% O2 and 5% CO2, pH ~7.4.
After mounting the nerve-muscle preparation in the experimental setup, the contractile function of the muscle was initially assessed under the control conditions. Sub-maximal concentration of tubocurarine (115 nM), an acetylcholine receptor antagonist, was then added to the experimental bath to impose partial inhibition of the ability of the motor nerve to activate the muscle fibres. The experimental condition mimics the failing neuromuscular transmission in a range of neuromuscular disorders. After addition of tubocurarine the contractile force declined over the next 90 minutes to 10-50% of the control force. The test compound was then added to obtain the required compound concentration in the bath and the contractile force recovered was measured. To quantify the ability of the compound to restore force the percentage of the initial force that was restored was determined after 40 mins of compound exposure and the point increase is reported in Tables 3 to 7.

The target in assay [2] is T1, CIC-1 ion channel (Rattus norvegicus, UniProt P35524).
T1 construct: from tissue; host or cells: whole soleus muscle of 12-14 week old Wistar rats
T1 sequence (P35524 1-994): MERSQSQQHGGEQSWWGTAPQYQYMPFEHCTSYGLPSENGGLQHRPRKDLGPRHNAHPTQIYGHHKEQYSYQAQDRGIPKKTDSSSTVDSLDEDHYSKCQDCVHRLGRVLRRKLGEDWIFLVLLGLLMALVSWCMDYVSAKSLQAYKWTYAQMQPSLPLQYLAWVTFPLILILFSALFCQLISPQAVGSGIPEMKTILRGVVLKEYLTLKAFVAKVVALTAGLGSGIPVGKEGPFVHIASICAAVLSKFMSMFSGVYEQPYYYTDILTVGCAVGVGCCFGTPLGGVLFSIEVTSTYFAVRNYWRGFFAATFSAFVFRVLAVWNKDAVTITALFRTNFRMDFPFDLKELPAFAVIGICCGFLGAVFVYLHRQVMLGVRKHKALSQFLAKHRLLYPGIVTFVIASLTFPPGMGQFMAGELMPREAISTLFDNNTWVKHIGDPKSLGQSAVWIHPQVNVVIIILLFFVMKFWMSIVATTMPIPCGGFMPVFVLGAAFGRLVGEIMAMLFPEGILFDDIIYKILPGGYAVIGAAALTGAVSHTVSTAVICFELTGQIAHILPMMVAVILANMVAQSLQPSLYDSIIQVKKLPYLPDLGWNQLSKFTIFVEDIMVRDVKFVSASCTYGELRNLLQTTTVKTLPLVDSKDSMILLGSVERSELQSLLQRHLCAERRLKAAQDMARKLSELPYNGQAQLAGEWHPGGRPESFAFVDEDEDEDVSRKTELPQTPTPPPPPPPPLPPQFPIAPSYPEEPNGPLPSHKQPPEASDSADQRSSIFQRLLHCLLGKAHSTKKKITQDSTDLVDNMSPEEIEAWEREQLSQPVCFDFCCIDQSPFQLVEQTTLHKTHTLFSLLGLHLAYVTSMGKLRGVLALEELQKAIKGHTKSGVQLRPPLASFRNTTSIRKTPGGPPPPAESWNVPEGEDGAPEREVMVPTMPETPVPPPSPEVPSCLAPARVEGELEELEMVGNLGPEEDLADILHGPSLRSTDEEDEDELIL
Kind of assay: Electrophysiological measurement of compound inhibition of CIC-1 in rat muscle (Gm, three micro-electrodes technique). As to conditions: Gm in fibres of whole rat soleus muscle, four increasing compound concentrations; read-out: Potency Range (EC50, inhibition of CIC-1 ion channel). The class given is cell-based. As for the experimental part: Apparent CIC-1 affinity was reported by the concentration of compound at which 50% of the compound's full inhibition of CIC-1 was observed (EC50) (see also WO2019/115777).
Experimentally, Gm was measured in individual fibres of whole rat soleus muscles using a three micro-electrodes technique described in this example and in full detail elsewhere (Riisager et al., Determination of cable parameters in skeletal muscle fibres during repetitive firing of action potentials. Journal of Physiology, 2014, 592, 4417-4429). Briefly, intact rat soleus muscles were dissected out from 12-14 week old Wistar rats and placed in an experimental chamber that was perfused with a standard Krebs Ringer solution containing 122 mM NaCl, 25 mM NaHCO3, 2.8 mM KCl, 1.2 mM KH2PO4, 1.2 mM MgSO4, 1.3 mM CaCl2), 5.0 mM D-glucose. During experiments, the solution was kept at approx. 30° C. and continuously equilibrated with a mixture of 95% O2 and 5% CO2, pH ~7.4. The experimental chamber was placed in Nikon upright microscope that was used to visualize individual muscle fibres and the three electrodes (glass pipettes filled with 2 M potassium citrate). For Gm measurements, the electrodes were inserted into the same fibre with known inter-electrode distances of 0.35-0.5 mm (V1-V2, X1) and 1.1-1.5 mm (V1-V3, X3). The membrane potential of the impaled muscle fibre was recorded by all electrodes. Two of the electrodes were furthermore used to inject 50 ms current pulses of −30 nA. […] The steady state voltage deflection at each distance was divided by the magnitude of current injected (−30 nA) and the resulting transfer resistances were plotted against inter-electrode distance and the data was fitted to a mono-exponential function from which Gm could be calculated using linear cable theory.
To establish a dose response relationship, Gm was first determined in 10 muscle fibres in the absence of compound and then at four increasing compound concentrations with Gm determinations in 5-10 fibres at each concentration. The average Gm values at each concentration were plotted against compound concentration and the data was fitted to sigmoidal function to obtain an EC50 value.

[3] abbreviates: tubocurarine 115 nM, after 40 mins of compound exposure.
Where [4] appears, read: 10 μM of test compound, tubocurarine 115 nM, after 40 mins of compound exposure.
Setting [5] is: 25 μM of test compound, tubocurarine 115 nM, after 40 mins of compound exposure.

Like-named read-outs stand apart in the source and are kept apart here.

As to `COc1c(Cl)cc2c(c1C(=O)O)OCCO2` [Compound A-1, 7-Chloro-6-methoxy-2,3-dihydro-1,4-benzodioxine-5-carboxylic acid], in assay [1] (setting [3]), the activation at 50 µM was 31%. The EC50 in assay [2] lay within 5000 to 15000 nM.

As to `COc1c(Cl)cc2c(c1C(=O)O)OCCN2C` [Compound A-2, 6-Chloro-7-methoxy-4-methyl-3,4-dihydro-2H-1,4-benzoxazine-8-carboxylic acid], the activation at 10 µM in assay [1] (setting [4]) was 32%. Moreover, the EC50 in assay [2] is 200 to 1000 nM.

With `CN1CCOc2cc(Cl)c(F)c(C(=O)O)c21` [Compound A-3, 7-Chloro-6-fluoro-4-methyl-3,4-dihydro-2H-1,4-benzoxazine-5-carboxylic acid], the activation at 10 µM in assay [1] is 41%. In assay [2], the EC50 lay within 1000 to 5000 nM.

`CN1CCOc2c1cc(F)c(Cl)c2C(=O)O` [Compound A-4, 7-Chloro-6-fluoro-4-methyl-3,4-dihydro-2H-1,4-benzoxazine-8-carboxylic acid]: the activation at 10 µM in assay [1] (setting [4]) was determined as 36%. Moreover, the concentration for a half-maximal effect (EC50) in assay [2] is 1000 to 5000 nM.

As to `O=C(O)c1c(F)cc(Cl)c2c1OCCN2` [Compound A-5, 5-Chloro-7-fluoro-3,4-dihydro-2H-1,4-benzoxazine-8-carboxylic acid], in assay [1] (setting [3]), the activation at 50 µM stood at 44%. Besides, the concentration giving a half-maximal response (EC50) in assay [2] is 5000 to 15000 nM. In the case of `O=C(O)c1c(F)c(Cl)cc2c1OCCN2` [Compound A-6, 6-Chloro-7-fluoro-3,4-dihydro-2H-1,4-benzoxazine-8-carboxylic acid], the activation at 10 µM in assay [1] (setting [4]) was found to be 19%. In addition, the EC50 in assay [2] is 5000 to 15000 nM.

As for `CN1CCOc2c1cc(Cl)c(F)c2C(=O)O` [Compound A-7, 6-Chloro-7-fluoro-4-methyl-3,4-dihydro-2H-1,4-benzoxazine-8-carboxylic acid], in assay [2], the EC50 lay in the range of 200 to 1000 nM. Turning to `CN1CCN(C)c2c1cc(Cl)c(F)c2C(=O)O` [Compound A-8, 7-Chloro-6-fluoro-1,4-dimethyl-1,2,3,4-tetrahydroquinoxaline-5-carboxylic acid], the activation at 10 µM in assay [1] (setting [4]) was 26%. Further, the 50% effective concentration (EC50) in assay [2] lay within 1000 to 5000 nM. On the same counts, the results for `CN1CC(C)(C)Oc2c1cc(Cl)c(F)c2C(=O)O` [Compound A-9, 6-Chloro-7-fluoro-2,2,4-trimethyl-3,4-dihydro-2H-1,4-benzoxazine-8-carboxylic acid] are 37% and 1000 to 5000 nM. For `CN1CCCOc2c1cc(Cl)c(F)c2C(=O)O` [Compound A-13, 7-Chloro-8-fluoro-5-methyl-2,3,4,5-tetrahydro-1,5-benzoxazepine-9-carboxylic acid] the same measures were 30% and 1000 to 5000 nM. As for `CC(C)CCN1CCOc2c1cc(Cl)c(F)c2C(=O)O` [Compound A-17, 6-chloro-7-fluoro-4-(3-methylbutyl)-3,4-dihydro-2H-1,4-benzoxazine-8-carboxylic acid], the activation at 50 µM in assay [1] (setting [3]) is 29%. In addition, the EC50 in assay [2] was 5000 to 15000 nM. For the compound `CCN1CCOc2c1cc(Cl)c(F)c2C(=O)O` [Compound A-18, 6-Chloro-4-ethyl-7-fluoro-3,4-dihydro-2H-1,4-benzoxazine-8-carboxylic acid], the activation at 10 µM in assay [1] (setting [4]) is 34%. Besides, the concentration for a half-maximal effect (EC50) in assay [2] was in the range of 1000 to 5000 nM. For `CN1CCSc2c1cc(Cl)c(F)c2C(=O)O` [Compound A-19, 6-chloro-7-fluoro-4-methyl-3,4-dihydro-2H-1,4-benzothiazine-8-carboxylic acid] the same measures were 28% and 1000 to 5000 nM.

Consider `CCCN1CCOc2c1cc(Cl)c(F)c2C(=O)O` [Compound A-21, 6-Chloro-7-fluoro-4-propyl-3,4-dihydro-2H-1,4-benzoxazine-8-carboxylic acid], for which, in assay [1] (setting [5]), the activation at 25 µM came to 29%. The concentration for a half-maximal effect (EC50) in assay [2] is 1000 to 5000 nM.

Consider `CCN1CCOc2c1cc(Cl)c(OC)c2C(=O)O` [Compound A-28, 6-Chloro-4-ethyl-7-methoxy-3,4-dihydro-2H-1,4-benzoxazine-8-carboxylic acid], for which, in assay [1], the activation at 25 µM came to 36%. In addition, in assay [2], the EC50 fell in the range of 200 to 1000 nM.

Turning to `COc1c(Cl)cc2c(c1C(=O)O)SCCN2C` [Compound A-29, 6-Chloro-7-methoxy-4-methyl-3,4-dihydro-2H-1,4-benzothiazine-8-carboxylic acid], the activation at 10 µM in assay [1] (setting [4]) came out at 43%. Besides, the 50% effective concentration (EC50) in assay [2] lay in the range of 200 to 1000 nM.

Regarding `COc1c(F)cc2c(c1C(=O)O)OCCN2C` [Compound A-30, 6-Fluoro-7-methoxy-4-methyl-3,4-dihydro-2H-1,4-benzoxazine-8-carboxylic acid], the activation at 10 µM in assay [1] came out at 39%. Further, the EC50 in assay [2] is 200 to 1000 nM. On to `COc1c(Cl)cc2c(c1C(=O)O)OCCN2Cc1ccsc1` [Compound A-36, 6-Chloro-7-methoxy-4-[(thiophen-3-yl)methyl]-3,4-dihydro-2H-1,4-benzoxazine-8-carboxylic acid], for which the activation at 25 µM in assay [1] (setting [5]) worked out at 36%. Besides, the EC50 in assay [2] was 1000 to 5000 nM. Take `O=C(O)c1c(F)c(Cl)cc2c1N(Cc1ccsc1)CCO2` [Compound A-54, 7-Chloro-6-fluoro-4-[(thiophen-3-yl)methyl]-3,4-dihydro-2H-1,4-benzoxazine-5-carboxylic acid]: the activation at 10 µM in assay [1] (setting [4]) was found to be 28%. In assay [2], the EC50 lay within 200 to 1000 nM.

On to `COc1ccc(CN2CCOc3cc(Cl)c(F)c(C(=O)O)c32)cc1` [Compound A-58, 7-Chloro-6-fluoro-4-[(p-methoxyphenyl)methyl]-3,4-dihydro-2H-1,4-benzoxazine-5-carboxylic acid], for which, in assay [1] (setting [4]), the activation at 10 µM came to 35%. Also, the EC50 in assay [2] was in the range of 200 to 1000 nM. With `Cc1ccccc1CN1CCOc2cc(Cl)c(F)c(C(=O)O)c21` [Compound A-62, 7-Chloro-6-fluoro-4-[(o-tolyl)methyl]-3,4-dihydro-2H-1,4-benzoxazine-5-carboxylic acid], the activation at 10 µM in assay [1] (setting [4]) was determined as 28%.

The values above are taken from patent US20260199369A1, “COMPOUNDS FOR THE TREATMENT OF NEUROMUSCULAR DISORDERS” (NMD PHARMA A/S, priority 2022, published 2026).
